# Results as given in US10206909B2, “3-(1H-pyrrolo[2,3-B]pyridin-2-yl)-1H-pyrazolo[4,3-B]pyridines and therapeutic uses thereof” (Samumed, LLC, priority 2015, dated 2019).
# pEC50: −log10 of the molar value.
# What was measured:
# Type in all cases: cell-based
# SW480 colon cancer cells = assay: Cell viability assay (CellTiter-Blue); conditions: Homo sapiens; for pEC50: 96 h, SW480 cell viability, four days, CellTiter-Blue; for inhibition at 10 µM: given where EC50 >10 μM, SW480 viability, read-out: percent inhibition at 10 μM
# Description: Representative compounds were screened using the following assay procedure to assess the effect on cell viability as described below.
# Each compound was dissolved in DMSO as a 10 mM stock and used to prepare compound source plates. Serial dilution (1:3, 8-point dose-response curves from 10 μM to 0.0045 μM) and compound transfer was performed using the ECHO 550 (Labcyte, Sunnyvale, Calif.) into 96-well clear bottom, black-walled plates (Corning-Costar).
# Approximately 2×10^3 SW480 colon cancer cells were seeded into each well and allowed to incubate in the presence or absence of compound for four days at 37° C./5% CO2. Eight replicates of DMSO-treated cells served as controls and cells treated with compound were performed in duplicate.
# After incubation, 20 μL of CellTiter-Blue (Promega) was added to each well allowed to incubate for approximately 3 hours. This reagent was a buffered solution which contains resazurin, metabolically active cells were able to reduce rezarurin (blue) into resorufin (pink) which was highly fluorescent. This measured fluorescence was used as a readout for cell viability.
# After incubation, the plates were read at Ex 560 nm Em 590 nm (Cytation 3, BioTek). Dose-response curves were generated and EC50 concentration values were calculated using non-linear regression curve fit in the GraphPad Prism (San Diego, Calif.) or Dotmatics' Studies Software (Bishops Stortford, UK). For EC50 of >10 μM, the percent inhibition at 10 μM is provided.
# [1] = test system: Wnt activity (Sp5-Luc reporter, SW480 colon carcinoma cells); assay: Wnt activity screening assay: Sp5-Luc reporter gene assay in SW480 cells; conditions: Homo sapiens; for pEC50: SW480 cells, overnight incubation; for inhibition at 10 µM: given where EC50 >10 μM, SW480, read-out: percent inhibition at 10 μM
# Source text: The screening assay for Wnt activity is described as follows. Reporter cell lines can be generated by stably transducing cancer cell lines (e.g., colon cancer) or primary cells (e.g., IEC-6 intestinal cells) with a lentiviral construct that includes a Wnt-responsive promoter driving expression of the firefly luciferase gene.
# SW480 colon carcinoma cells were transduced with a lentiviral vector expressing luciferase with a human Sp5 promoter consisting of a sequence of eight TCF/LEF binding sites. SW480 cells stably expressing the Sp5-Luc reporter gene and a hygromycin resistance gene were selected by treatment with 150 μg/mL of hygromycin for 7 days. These stably transduced SW480 cells were expanded in cell culture and used for all further screening activities. Each compound was dissolved in DMSO as a 10 mM stock and used to prepare compound source plates. Serial dilution (1:3, 10-point dose-response curves starting from 10 μM) and compound transfer was performed using the ECHO 550 (Labcyte, Sunnyvale, Calif.) into 384-well white solid bottom assay plates (Greiner Bio-One) with appropriate DMSO backfill for a final DMSO concentration of 0.1%. For Sp5-Luc reporter gene assays, the cells were plated at 4,000 cells/well in 384-well plates with medium containing 1% fetal bovine serum and incubated overnight at 37° C. and 5% CO2. Following incubation, 20 μl of BrightGlo luminescence reagent (Promega) was added to each well of the 384-well assay plates. The plates were placed on an orbital shaker for 2 min and then luminescence was quantified using the Envision (Perkin Elmer) plate reader. Readings were normalized to DMSO only treated cells, and normalized activities were utilized for EC50 calculations using the dose-response log (inhibitor) vs. response -variable slope (four parameters) nonlinear regression feature available in GraphPad Prism 5.0 (or Dotmatics). For EC50 of >10 μM, the percent inhibition at 10 μM is provided.
# IL-6 (THP-1 cells) = assay: IL-6 inhibition in LPS-stimulated THP-1 cells (HTRF); conditions: Homo sapiens; for pEC50: THP-1 cells, LPS 500 ng/mL, 22 hours, IL6 HTRF; for inhibition at 10 µM: given where EC50 >10 μM, THP-1, IL6, read-out: percent inhibition at 10 μM
# Description: Human Monocyte Cell Culture: Human monocyte cell line (THP-1 cells; Catalog # TIB-202, ATCC, Manassas, Va.) were cultured in Roswell Park Memorial Institute (RPMI) 1640 Medium (Catalog #21870-100, Buffalo, N.Y.) with 1% L-glutamine, 1% HEPES, 1% Sodium Pyruvate, 2% Sodium Bicarbonate supplemented with 100 units/mL penicillin, 50 μg/mL streptomycin, 2-mercaptoethanol (0.05 mM) [basal medium] and 10% fetal bovine serum (Catalog #16140089, Life Technologies, Carlsbad, Calif.) at 37° C. and 5% CO2.
# Compound Screening: THP-1 cells were cultured in basal media with 1% FBS for 24 hours before the start of the assay. Each compound was dissolved in DMSO as a 10 mM stock and used to prepare compound source plates. Serial dilution (1:3, 10-point dose-response curves starting from 10 μM) and compound transfer was performed using the ECHO 550 (Labcyte, Sunnyvale, Calif.) into 384-well white low volume assay plates (Greiner Bio-One) with appropriate DMSO backfill for a final DMSO concentration of 0.1%. THP-1 cells were plated at 5000 cells/well in the 384-well plates and incubated at 37° C. for 2 h. 500 ng/mL of LPS was added after 2 hours and cells were incubated for another 22 hours at 37° C. Plates were spun in a centrifuge for 1 minute at […] and a mixture of anti-IL6 XL665, and anti-IL6 Cryptate diluted in reconstitution buffer (Cisbio Inc.) was added to each well. Following incubation for 3 hrs at room temperature, Homogeneous Time-Resolved Fluorescence (HTRF) was measured using the Envision (Perkin Elmer) at 665 nm and […]. The ratio of fluorescence at 665 nm to 620 nm was used as a readout for IL6 quantification. All samples were processed in duplicate. Readings were normalized to DMSO treated cells and normalized activities were utilized for EC50 calculations using the dose-response log (inhibitor) vs. response —variable slope (four parameters) nonlinear regression feature available in GraphPad Prism 5.0 (or Dotmatics). For EC50 of >10 μM, the percent inhibition at 10 μM is provided.
Structure (SMILES),pEC50 (SW480 colon cancer cells),inhibition at 10 µM (SW480 colon cancer cells) [%],pEC50 [1],pEC50 (IL-6 (THP-1 cells)),inhibition at 10 µM [1] [%],inhibition at 10 µM (IL-6 (THP-1 cells)) [%]
"CC(C)Nc1cncc(-c2ccc3[nH]nc(-c4cc5c(-c6cccnc6)ccnc5[nH]4)c3n2)c1 [Compound 96, N-Isopropyl-5-(3-(4-(pyridin-3-yl)-1H-pyrrolo[2,3-b]pyridin-2-yl)-1H-pyrazolo[4,3-b]pyridin-5-yl)pyridin-3-amine]",< 5.00,0,6.59,8.10,–,–
"c1cncc(-c2ccnc3[nH]c(-c4n[nH]c5ccc(-c6ccncc6)nc45)cc23)c1 [Compound 102, 3-(4-(Pyridin-3-yl)-1H-pyrrolo[2,3-b]pyridin-2-yl)-5-(pyridin-4-yl)-1H-pyrazolo[4,3-b]pyridine]",< 5.00,10,< 5.00,< 5.00,9.5,23.9
"FC1(F)CCN(Cc2cncc(-c3ccc4[nH]nc(-c5cc6c(-c7cccnc7)ccnc6[nH]5)c4n3)c2)C1 [Compound 110, 5-(5-((3,3-Difluoropyrrolidin-1-yl)methyl)pyridin-3-yl)-3-(4-(pyridin-3-yl)-1H-pyrrolo[2,3-b]pyridin-2-yl)-1H-pyrazolo[4,3-b]pyridine]",< 5.00,12.3,< 5.00,5.31,47.7,–
"Nc1cncc(-c2ccc3[nH]nc(-c4cc5c(-c6ccncc6)ccnc5[nH]4)c3n2)c1 [Compound 115, 5-(3-(4-(Pyridin-4-yl)-1H-pyrrolo[2,3-b]pyridin-2-yl)-1H-pyrazolo[4,3-b]pyridin-5-yl)pyridin-3-amine]",< 5.00,17.5,< 5.00,< 5.00,24.4,22.2
"Cc1ccncc1-c1ccc2[nH]nc(-c3cc4c(-c5ccncc5)ccnc4[nH]3)c2n1 [Compound 117, 5-(4-Methylpyridin-3-yl)-3-(4-(pyridin-4-yl)-1H-pyrrolo[2,3-b]pyridin-2-yl)-1H-pyrazolo[4,3-b]pyridine]",< 5.00,3.4,< 5.00,< 5.00,11.8,45.3
"c1cc(-c2ccnc3[nH]c(-c4n[nH]c5ccc(-c6cncc(CN7CCCCC7)c6)nc45)cc23)ccn1 [Compound 127, 5-(5-(Piperidin-1-ylmethyl)pyridin-3-yl)-3-(4-(pyridin-4-yl)-1H-pyrrolo[2,3-b]pyridin-2-yl)-1H-pyrazolo[4,3-b]pyridine]",< 5.00,14.5,< 5.00,< 5.00,5.8,30.2
"c1cc(-c2ccnc3[nH]c(-c4n[nH]c5ccc(-c6cncc(CNCC7CCCC7)c6)nc45)cc23)ccn1 [Compound 137, 1-Cyclopentyl-N-((5-(3-(4-(pyridin-4-yl)-1H-pyrrolo[2,3-b]pyridin-2-yl)-1H-pyrazolo[4,3-b]pyridin-5-yl)pyridin-3-yl)methyl)methanamine]",5.43,–,< 5.00,< 5.00,19.5,40.8
"Cc1ccncc1-c1ccc2[nH]nc(-c3cc4c(N5CCCCC5)ccnc4[nH]3)c2n1 [Compound 173, 5-(4-Methylpyridin-3-yl)-3-(4-(piperidin-1-yl)-1H-pyrrolo[2,3-b]pyridin-2-yl)-1H-pyrazolo[4,3-b]pyridine]",< 5.00,49.2,5.63,6.01,–,–
"CN(C)Cc1cncc(-c2ccc3[nH]nc(-c4cc5c(N6CCCCC6)ccnc5[nH]4)c3n2)c1 [Compound 181, N,N-Dimethyl-1-(5-(3-(4-(piperidin-1-yl)-1H-pyrrolo[2,3-b]pyridin-2-yl)-1H-pyrazolo[4,3-b]pyridin-5-yl)pyridin-3-yl)methanamine]",< 5.00,47.5,< 5.00,< 5.00,4.1,29.2
"c1cc(N2CCCCC2)c2cc(-c3n[nH]c4ccc(-c5cncc(CN6CCCCC6)c5)nc34)[nH]c2n1 [Compound 183, 3-(4-(Piperidin-1-yl)-1H-pyrrolo[2,3-b]pyridin-2-yl)-5-(5-(piperidin-1-ylmethyl)pyridin-3-yl)-1H-pyrazolo[4,3-b]pyridine]",< 5.00,45.5,< 5.00,< 5.00,6.5,18.2
"CCCCC(=O)Nc1cncc(-c2ccc3[nH]nc(-c4cc5c(N6CCCCC6)ccnc5[nH]4)c3n2)c1 [Compound 187, N-(5-(3-(4-(Piperidin-1-yl)-1H-pyrrolo[2,3-b]pyridin-2-yl)-1H-pyrazolo[4,3-b]pyridin-5-yl)pyridin-3-yl)pentanamide]",5.45,–,< 5.00,6.47,14.3,–
"FC1(F)CCN(Cc2cncc(-c3ccc4[nH]nc(-c5cc6c(N7CCCCC7)ccnc6[nH]5)c4n3)c2)C1 [Compound 194, 5-(5-((3,3-Difluoropyrrolidin-1-yl)methyl)pyridin-3-yl)-3-(4-(piperidin-1-yl)-1H-pyrrolo[2,3-b]pyridin-2-yl)-1H-pyrazolo[4,3-b]pyridine]",< 5.00,28.3,5.28,5.16,–,–
"c1ncc(-c2ccc3[nH]nc(-c4cc5c(N6CCCCC6)ccnc5[nH]4)c3n2)cn1 [Compound 195, 3-(4-(Piperidin-1-yl)-1H-pyrrolo[2,3-b]pyridin-2-yl)-5-(pyrimidin-5-yl)-1H-pyrazolo[4,3-b]pyridine]",< 5.00,22.9,< 5.00,< 5.00,12.6,26
"c1ccc(-c2ccc3[nH]nc(-c4cc5c(N6CCCCC6)ccnc5[nH]4)c3n2)nc1 [Compound 196, 3-(4-(Piperidin-1-yl)-1H-pyrrolo[2,3-b]pyridin-2-yl)-5-(pyridin-2-yl)-1H-pyrazolo[4,3-b]pyridine]",< 5.00,2.4,< 5.00,< 5.00,9.8,46.5
